This is an account of results in ChEMBL document CHEMBL3774369, “Tetrahydroisoquinoline Phenols: Selective Estrogen Receptor Downregulator Antagonists with Oral Bioavailability in Rat” (ACS Med Chem Lett, 2016).

The structures appear in SMILES notation. pIC50: −log10 of the molar value. Where only a bound is given, the exact number is not on record here.

Data set [1] can be described thus: Intrinsic clearance in human hepatocytes assessed per 10^6 cells. The class given is ADME, cell-based, Hepatocyte. The conditions noted are these: read-out: CLH.
The nature of data set [2]: Intrinsic clearance in Han Wistar rat hepatocytes assessed per 10^6 cells. The conditions noted are these: read-out: CLH. The class given is ADME, cell-based, Hepatocyte.
A short description of another data set: physchem. The conditions noted are these: buffer, pH 7.4.
Data set [3] can be described thus: Half life in rat at 1 mg/kg, po. The conditions noted are these: in vivo. In kind it is ADME, organism-based.
The target of another data set is T1, Adenosine receptor A1 (Homo sapiens, UniProt P30542).
T1 sequence (P30542 whole entry): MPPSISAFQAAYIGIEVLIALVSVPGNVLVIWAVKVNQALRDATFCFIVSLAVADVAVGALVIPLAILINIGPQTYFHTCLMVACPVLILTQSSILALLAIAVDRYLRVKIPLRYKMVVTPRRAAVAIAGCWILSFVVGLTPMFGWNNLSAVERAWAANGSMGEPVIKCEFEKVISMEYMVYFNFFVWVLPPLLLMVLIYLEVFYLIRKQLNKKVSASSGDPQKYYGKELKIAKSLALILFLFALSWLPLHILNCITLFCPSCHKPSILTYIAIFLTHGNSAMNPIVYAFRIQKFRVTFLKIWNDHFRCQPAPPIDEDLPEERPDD
Put plainly: Inhibition of recombinant human adenosine receptor A1 expressed in CHO cells. In kind it is cell-based.

The nature of data set [4]: Solubility of compound in aqueous phosphate buffer at pH 7.4 after 24 hrs. In kind it is physicochemical.
The target of another data set is T2, B2 bradykinin receptor (Homo sapiens, UniProt P30411).
T2 sequence (P30411 whole entry): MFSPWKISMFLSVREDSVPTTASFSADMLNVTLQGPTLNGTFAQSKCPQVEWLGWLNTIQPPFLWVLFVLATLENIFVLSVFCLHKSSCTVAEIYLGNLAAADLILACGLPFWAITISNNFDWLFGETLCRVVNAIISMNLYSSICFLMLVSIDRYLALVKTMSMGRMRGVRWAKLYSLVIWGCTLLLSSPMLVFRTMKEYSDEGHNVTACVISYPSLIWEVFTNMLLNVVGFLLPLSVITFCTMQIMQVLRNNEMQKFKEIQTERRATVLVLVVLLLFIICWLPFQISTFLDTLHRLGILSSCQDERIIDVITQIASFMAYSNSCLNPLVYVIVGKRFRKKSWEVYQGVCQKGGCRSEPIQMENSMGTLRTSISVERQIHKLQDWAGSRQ
As to the kind of experiment: Inhibition of recombinant human bradykinin receptor 2 expressed in CHO cells. In kind it is cell-based.

The nature of data set [5]: Volume of distribution at steady state in rat at 0.5 mg/kg, iv or 1 mg/kg, po. In kind it is ADME, organism-based. The conditions noted are these: in vivo, read-out: Vdss.
The target in a further data set is Mu-type opioid receptor (Homo sapiens, UniProt P35372). Put plainly: Inhibition of human recombinant mu1 opioid receptor expressed in HEK293 cells. The class given is cell-based.
Mu-type opioid receptor, sequence (P35372 whole entry): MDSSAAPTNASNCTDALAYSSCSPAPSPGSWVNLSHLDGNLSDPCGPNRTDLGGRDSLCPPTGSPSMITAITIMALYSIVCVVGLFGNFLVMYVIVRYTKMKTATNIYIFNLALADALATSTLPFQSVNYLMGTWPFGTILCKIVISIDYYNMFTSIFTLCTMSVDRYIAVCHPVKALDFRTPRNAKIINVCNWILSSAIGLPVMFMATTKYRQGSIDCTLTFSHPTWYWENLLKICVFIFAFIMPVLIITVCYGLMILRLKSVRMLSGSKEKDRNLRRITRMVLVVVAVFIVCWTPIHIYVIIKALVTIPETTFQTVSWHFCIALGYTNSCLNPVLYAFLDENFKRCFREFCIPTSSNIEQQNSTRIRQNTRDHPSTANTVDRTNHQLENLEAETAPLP
A short description of data set [6]: Half life in rat at 0.5 mg/kg, iv. The class given is ADME, organism-based. The conditions noted are these: in vivo.
In data set [7] the target is Voltage-gated inwardly rectifying potassium channel KCNH2 (Homo sapiens, UniProt Q12809). As to the kind of experiment: Inhibition of human ERG tail current by plate-based planar patch clamp system. In general terms: The patch-clamp technique gives a direct electrical read-out from membranes.
Voltage-gated inwardly rectifying potassium channel KCNH2, sequence (Q12809 whole entry): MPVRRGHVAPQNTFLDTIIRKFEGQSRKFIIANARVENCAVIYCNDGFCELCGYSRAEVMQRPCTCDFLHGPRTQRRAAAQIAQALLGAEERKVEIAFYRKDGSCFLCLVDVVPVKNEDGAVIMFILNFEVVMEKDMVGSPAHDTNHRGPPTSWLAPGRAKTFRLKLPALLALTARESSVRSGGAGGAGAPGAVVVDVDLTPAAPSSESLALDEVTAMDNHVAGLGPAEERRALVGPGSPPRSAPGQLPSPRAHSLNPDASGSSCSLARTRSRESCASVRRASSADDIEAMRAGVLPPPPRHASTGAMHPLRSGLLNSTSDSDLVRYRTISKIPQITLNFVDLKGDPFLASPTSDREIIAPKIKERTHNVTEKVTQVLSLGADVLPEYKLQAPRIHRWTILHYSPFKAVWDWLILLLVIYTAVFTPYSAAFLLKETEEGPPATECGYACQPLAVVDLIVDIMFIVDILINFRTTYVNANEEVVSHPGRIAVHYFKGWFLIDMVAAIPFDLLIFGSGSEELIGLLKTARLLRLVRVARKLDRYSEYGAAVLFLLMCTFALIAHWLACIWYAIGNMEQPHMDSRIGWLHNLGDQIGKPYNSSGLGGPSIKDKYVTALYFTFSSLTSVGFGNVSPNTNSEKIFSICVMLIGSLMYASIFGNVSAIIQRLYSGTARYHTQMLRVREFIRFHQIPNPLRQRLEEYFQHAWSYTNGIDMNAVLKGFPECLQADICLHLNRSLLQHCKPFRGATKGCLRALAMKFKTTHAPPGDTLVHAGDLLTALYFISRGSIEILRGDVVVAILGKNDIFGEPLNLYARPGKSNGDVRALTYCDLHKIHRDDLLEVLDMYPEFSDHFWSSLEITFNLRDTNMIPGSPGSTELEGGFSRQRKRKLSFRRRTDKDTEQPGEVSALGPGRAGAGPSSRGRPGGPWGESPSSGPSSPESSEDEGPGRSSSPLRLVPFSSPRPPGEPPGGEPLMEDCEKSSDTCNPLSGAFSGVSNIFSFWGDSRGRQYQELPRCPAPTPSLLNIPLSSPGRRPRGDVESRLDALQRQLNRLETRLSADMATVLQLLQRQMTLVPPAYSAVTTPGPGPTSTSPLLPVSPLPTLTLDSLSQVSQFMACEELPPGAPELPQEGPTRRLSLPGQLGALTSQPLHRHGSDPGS
Data set [8] is described as follows: Clearance in rat at 0.5 mg/kg, iv or 1 mg/kg, po. The class given is ADME, organism-based. The conditions noted are these: in vivo.
Data set [9] can be described thus: Percentage unbound in human plasma by equilibrium dialysis method. The class given is ADME, cell-free. (In general: Equilibrium dialysis compares concentrations on both sides of a semipermeable membrane.)
The nature of data set [10]: Percentage unbound in Han Wistar rat plasma by equilibrium dialysis method. The class given is ADME, cell-free.
Data set [11] is described as follows: Inhibition of cytochrome P450 (unknown origin). In kind it is ADME, Homo sapiens.
A short description of another data set: in vivo. The conditions noted are these: rat, po, 1 mg/kg.

The logD is the decadic logarithm of the distribution of all forms, ionised or not, between an organic phase and buffer at a given pH. The term half-life denotes the time needed for the level to fall by half in the phase considered. Lower therefore signals fast loss. What is called pIC50 is the IC50 on a negative log10 scale, so that one unit is a factor of ten. By solubility is commonly meant the dissolved amount per volume that the medium holds. High values mean much dissolved substance, low ones little dissolved substance. As usually defined, the fraction unbound is free concentration divided by total concentration. Lower therefore signals little free substance. For orientation: bioavailability means the share of a dose that reaches the circulation, judged against a reference dose that is usually intravenous. Read a low bioavailability as poor availability. For `CC(C)CN1[C@H](c2ccc(/C=C/C(=O)O)cc2)c2ccc(O)cc2C[C@H]1C`, the hepatocyte CLint turned out to be 33 µL/min/1e6 cells in data set [1] and 22 µL/min/1e6 cells in [2]. Besides, the logD in “physchem” came out at 1.7. Besides, the half-life in data set [3] was 3.9 h; in data set [6], 0.2 h. The pIC50 at Adenosine receptor A1 is 4.54; on B2 bradykinin receptor, 4.70; on Mu-type opioid receptor, 4.92; in data set [7], less than 4.52; in data set [11], less than 4.52. This molecule gave a solubility at 24 h in [4] of more than 1500 µM. The Vd in [5] was found to be 0.6 L/kg. In data set [8], this molecule showed a clearance of 49 mL/min/kg. Also, the fraction unbound amounted to 0.07 in data set [9] and 0.075 in [10]. The molecule further yielded a bioavailability in “in vivo” of 86%.
